From PMC8002271, “Synthesis and Biological Activity Evaluation of Coumarin-3-Carboxamide Derivatives” (Molecules, 2021)
≈ marks a conversion by molar mass, not a printed value. Where two headings read alike, the source gives them in different places.

How the values were obtained:
[1] = tested on: Helicobacter pylori; set-up: method as in PMID 16377035; details: cited from earlier work
[2] = tested on: HeLa cancer cell line; test: MTT cell viability assay, HeLa; format: cell-based; details: read-out: IC50 HeLa
Protocol: (§1) The cell viability assays of coumarin derivatives 10, 12, 13, 14a–g, and 15 were conducted against three cancer cell lines (HepG2, HeLa, and MDA-MB-231) and one normal cell line (LLC-MK2) using an MTT assay.
(§2) Stock solutions of coumarin derivatives 10, 12a, 13, 14a–g, and 15 were prepared in EtOH at a concentration of 5000 µg/mL. Prior to use, the stock solutions were further diluted to 128 µg/mL and added to the first wells. Two-fold serial dilutions were prepared, and final concentrations of 128 to 1 µg/mL in culture medium were achieved. Cells were seeded at a density of 5 × 10^4 cells/well in a 96-well plate and incubated for 16 h, followed by treatment with the test compounds. The control culture contained the carrier solvent of 2.5% dimethyl sulfoxide (DMSO). After 24 h, HepG2, HeLa, MDA-MB-231, and LLC-MK2 cells were then incubated with MTT (500 μg/mL) for 4 h. Then, DMSO was added to dissolve the blue formazan crystals formed, which were formed as a result of the action of cellular oxidoreductase enzymes on the MTT dye. Finally, the optical density at 450 nm was determined using a microplate reader.

[3] = tested on: B. subtilis TISTR 001; test: Antibacterial microbroth dilution MIC, B. subtilis; format: cell-based; details: Bacillus subtilis, read-out: MIC B. subtilis
Protocol: (§3) The antibacterial activities of coumarin derivatives 10, 12, 13, 14a–g, and 15 were evaluated against five reference standard bacteria, both gram-positive and gram-negative: B. cereus TISTR 2372, B. subtilis TISTR 001, S. aureus TISTR 2392, E. coli TISTR 073, and S. typhimurium TISTR 2519, using a standard microbroth dilution method.
(§4) The MIC values of coumarin derivatives 10, 12, 13, 14a–g, and 15 were determined through the microbroth dilution method in 96-well microtitre plates. The bacterial cultures were prepared from overnight cultures on nutrient broth (NB) at 37 °C for 24 h by diluting in NB compared with 0.5 McFarland. Coumarin derivatives 10, 12, 13, 14a–g, and 15 (5000 µg/mL) were prepared in EtOH, and 128 µg/mL of these were added to the first wells. Two-fold serial dilutions were prepared, and final concentrations of 128 to 1 µg/mL were achieved. The positive controls for penicillin G were determined, with the final concentrations from 128 to 1 µg/mL. In addition, an extra row of EtOH was used as a vehicle control to determine its possible inhibitory activity. Finally, 10 µL of bacterial suspension was added to each well. After the bacteria were incubated at 37 °C for 24 h, the microtitre plates were visually examined for bacterial growth; the growth rate was monitored at the optical density at 600 nm with a microplate reader.

[4] = tested on: S. typhimurium TISTR 2519; test: Antibacterial microbroth dilution MIC, S. typhimurium; format: cell-based; details: Salmonella enterica, 24 h, read-out: MIC S. typhimurium
Protocol: as §3, §4

[5] = tested on: E. coli TISTR 073; test: Antibacterial microbroth dilution MIC, E. coli; format: cell-based; details: Escherichia coli, read-out: MIC E. coli
Protocol: as §3, §4

[6] = tested on: B. cereus TISTR 2372; test: Antibacterial microbroth dilution MIC, B. cereus; format: cell-based; details: Bacillus cereus, read-out: MIC B. cereus
Protocol: as §3, §4

[7] = tested on: S. aureus TISTR 2392; test: Antibacterial microbroth dilution MIC, S. aureus; format: cell-based; details: Staphylococcus aureus, read-out: MIC S. aureus
Protocol: as §3, §4

[8] = tested on: LLC-MK2 normal cell line; test: MTT cell viability assay, LLC-MK2 normal cells; format: cell-based; details: Macaca mulatta, read-out: IC50 LLC-MK2
Protocol: as §1, §2

[9] = tested on: HepG2 cancer cell line; test: MTT cell viability assay, HepG2; format: cell-based; details: read-out: IC50 HepG2
Protocol: as §1, §2

[10] = Homo sapiens, HeLa, 24 h, cancer cell line, MTT assay, 24 h treatment
[11] = TISTR001, Gram-positive, microbroth dilution, 37 °C, 24 h
[12] = Gram-negative, microbroth dilution, 37 °C
[13] = TISTR073, Gram-negative, microbroth dilution, 37 °C, 24 h
[14] = TISTR2372, Gram-positive, microbroth dilution, 37 °C, 24 h
[15] = TISTR2392, Gram-positive, microbroth dilution, 37 °C, 24 h
[16] = LLC-MK2, normal cell line, MTT assay, 24 h treatment
[17] = Homo sapiens, HepG2, 24 h, cancer cell line, MTT assay, 24 h treatment
[18] = cancer cell line, MTT assay, 24 h treatment

SMILES	MIC H. pylori [1] [µg/mL]	IC50 [2, 10] [µM]	MIC [3, 11] [µg/mL]	MIC [4, 12] [µg/mL]	melting point [°C]	MIC [5, 13] [µg/mL]	MIC [6, 14] [µg/mL]	MIC [7, 15] [µg/mL]	IC50 [8, 16] [µM]	IC50 [9, 17] [µM]	IC50 [2, 18] [µM]	IC50 [9, 18] [µM]	IC50 ([2]; Homo sapiens, HeLa, 24 h) [µM]	MIC ([3]; TISTR001, 24 h) [µg/mL]	MIC [4] [µg/mL]	MIC ([5]; TISTR073, 24 h) [µg/mL]	MIC ([6]; TISTR2372, 24 h) [µg/mL]	MIC ([7]; TISTR2392, 24 h) [µg/mL]	IC50 ([8]; LLC-MK2, 24 h) [µM]	IC50 ([9]; Homo sapiens, HepG2, 24 h) [µM]
O=C(O)c1ccc(NC(=O)c2cc3ccccc3oc2=O)cc1 [4a]	1 (≈ 3.23 µM)																			
CC(C)=CCc1cc2cc(C(=O)Nc3ccccc3)c(=O)oc2cc1O [14a, 7-Hydroxy-6-(3-methylbut-2-en-1-yl)-2-oxo-N-phenyl-2H-chromene-3-carboxamide]		10.4	> 128	> 128	258 to 259	> 128	> 128	> 128	0.48	4.33										
CC(C)=CCc1cc2cc(C(=O)Nc3ccc(F)cc3)c(=O)oc2cc1O [14b, N-(4-Fluorophenyl)-7-hydroxy-6-(3-methylbut-2-en-1-yl)-2-oxo-2H-chromene-3-carboxamide]		0.39 to 0.75	> 128	> 128	259 to 261	> 128	> 128	> 128	> 100	2.62 to 4.85	0.75	4.85								
CC(C)=CCc1cc2cc(C(=O)Nc3ccc(Cl)cc3)c(=O)oc2cc1O [14c, N-(4-Chlorophenyl)-7-hydroxy-6-(3-methylbut-2-en-1-yl)-2-oxo-2H-chromene-3-carboxamide]		14	> 128	> 128	282 to 283	> 128	> 128	> 128	66.8	30.3										
CC(C)=CCc1cc2cc(C(=O)Nc3ccc(Br)cc3)c(=O)oc2cc1O [14d, N-(4-Bromophenyl)-7-hydroxy-6-(3-methylbut-2-en-1-yl)-2-oxo-2H-chromene-3-carboxamide]		37.4	> 128	> 128	276 to 277	> 128	> 128	> 128	> 100	45.8										
CC(C)=CCc1cc2cc(C(=O)Nc3cc(F)ccc3F)c(=O)oc2cc1O [14e, N-(2,5-Difluorophenyl)-7-hydroxy-6-(3-methylbut-2-en-1-yl)-2-oxo-2H-chromene-3-carboxamide]		0.39 to 0.75	> 128	> 128	248 to 250	> 128	> 128	> 128	1.33	2.62 to 4.85	0.39	2.62								
CC(C)=CCc1cc2cc(C(=O)Nc3ccc(C)cc3)c(=O)oc2cc1O [14f, 7-Hydroxy-6-(3-methylbut-2-en-1-yl)-2-oxo-N-(p-tolyl)-2H-chromene-3-carboxamide]		> 100	> 128	> 128	276 to 277	> 128	> 128	> 128	85.3	> 100										
COc1ccc(NC(=O)c2cc3cc(CC=C(C)C)c(O)cc3oc2=O)cc1 [14g, 7-Hydroxy-N-(4-methoxyphenyl)-6-(3-methylbut-2-en-1-yl)-2-oxo-2H-chromene-3-carboxamide]		> 100	> 128	> 128	259 to 261	> 128	> 128	> 128	> 100	> 100										
CN(C)c1ccc2cc3ccc(N(C)C)cc3nc2c1 [Acridine orange, acridine orange, reference compound]		6.59							82.3	5.72										
COc1cccc2c1C(=O)c1c(O)c3c(c(O)c1C2=O)C[C@@](O)(C(=O)CO)C[C@@H]3O[C@H]1C[C@H](N)[C@H](O)[C@H](C)O1 [Doxorubicin, doxorubicin, reference compound]		1.18							63.5	1.91										
CC1(C)C=Cc2cc3cc(C(=O)O)c(=O)oc3cc2O1 [compound 10, 8,8-dimethyl-2-oxo-2H,8H-pyrano[3,2-g]chromene-3-carboxylic acid]		80.4	128 (≈ 470 µM)	> 128	187 to 188	> 128	128 (≈ 470 µM)	64 (≈ 235 µM)	> 100	> 100										
CC1(C)C=Cc2cc3cc(C(=O)Nc4ccccc4)c(=O)oc3cc2O1 [compound 12, 8,8-dimethyl-2-oxo-N-phenyl-2H,8H-pyrano[3,2-g]chromene-3-carboxamide]		> 100	> 128	> 128	187 to 188	> 128	> 128	> 128	> 100	2.35										
CC(C)=CCc1cc2cc(C(=O)O)c(=O)oc2cc1O [compound 13, 3-carboxy-6-(3-methyl-2-butenyl)-7-hydroxy-coumarin]		26.4	128 (≈ 467 µM)	> 128	237 to 238	> 128	32 (≈ 117 µM)	64 (≈ 233 µM)	38	81.7										
CC(C)=CCc1cc2ccc(=O)oc2cc1O [compound 15, 6-(3-Methyl-2-buteny1)-7-hydroxycoumarin]													13.5	> 128	> 128	> 128	> 128	> 128	6.87	9.13
CC1(C)S[C@@H]2[C@H](NC(=O)Cc3ccccc3)C(=O)N2[C@H]1C(=O)O [penicillin G, reference compound]			2 (≈ 5.98 µM)	64 (≈ 191 µM)		32 (≈ 95.7 µM)	16 (≈ 47.8 µM)	16 (≈ 47.8 µM)												
